Source: article PMC10223552 (Pharmaceuticals, 2023)
Entries after “also recorded” stand apart in the source; their conditions may differ.

Columns and labels:
[1] = system: MCF-7 breast cancer cells; test: Apoptosis/necrosis detection (Annexin V-FITC/PI, image cytometry), MCF-7; type: cell-based, human; conditions: MCF-7, IC50 concentration, 48 h
Experimental: The MTT test results prompted further study. Staining with propidium iodide and Annexin V-FITC was performed to distinguish apoptotic from necrotic cell death.
Apoptosis was analyzed using the NucleoCounter® NC-3000™ (Chemometec Inc., Lillerød, Denmark) according to the manufacturer’s protocol using Annexin V from Biotium (Fremont, CA, USA). MCF-7 and MDA-MB-231 cells were seeded into 6-well plates (2 × 10^5 cells/mL) and cultured until 70–80% confluence was reached. […] Scatter plots were used to determine the proportion of healthy cells (Annexin V-negative/PI-negative cells), early apoptotic cells (Annexin V-positive/PI-negative cells), late apoptotic cells (Annexin V-positive/PI-positive cells), and necrotic cells (Annexin V-negative/PI-positive cells). Data were derived from three independent experiments with three replicates.

hepatoma HepG2 cell line = test: Hepatotoxicity assay (MTS), HepG2; type: cell-based
Experimental: The cells were grown in Minimum Essential Media (MEM) supplemented with 10% fetal bovine serum (FBS) in a humidified atmosphere of 5% CO2 to reach 70–80% confluency. The cells were seeded next into 96-well plates at a concentration of 0.7 × 10^4 cells/well. […] The 1% DMSO in culture media was used as the vehicle control.

[2] = In vitro metabolic stability in human liver microsomes; type: in vitro ADME
Experimental: In addition to biological activity, drug-likeness is equally important in drug discovery, and should be considered at the early stage of the drug development process. Therefore, ADS10310 was subjected to testing for several ADME-Tox parameters, including metabolic stability.
(§1) All assays and protocols used for the determination of compound ADME-Tox parameters were described previously. In brief, the metabolic stability assay was performed on HLMs, purchased from Sigma-Aldrich (St. Louis, MO, USA). ADS10310 was incubated with HLMs for 120 min in Tris buffer (pH = 7.4) at 37 °C. NADPH regeneration system Promega (Madison, WI, USA) was added to initiate whereas methanol was added to terminate the reaction. The LC/MS analyses of the centrifuged reaction mixture were obtained on Waters ACQUITY™ TQD system (Waters, Milford, CT, USA). The in silico prediction of most probable sites of ADS10310 metabolism was performed by MetaSite 6.0.1 software (Molecular Discovery Ltd., Hertfordshire, UK). To predict potential DDIs the CYP3A4 and CYP2D6 P450-Glo™ kits provided by Promega (Madison, WI, USA) were used according to provided protocols. The results were calculated from two independent experiments.

CYP3A4 = biological target: T1, CYP3A4 (Homo sapiens, UniProt P08684); test: Influence on CYP3A4 activity (P450-Glo); type: in vitro ADME
T1 construct: purchased Promega (Madison, WI, USA)
T1 sequence (P08684 whole entry): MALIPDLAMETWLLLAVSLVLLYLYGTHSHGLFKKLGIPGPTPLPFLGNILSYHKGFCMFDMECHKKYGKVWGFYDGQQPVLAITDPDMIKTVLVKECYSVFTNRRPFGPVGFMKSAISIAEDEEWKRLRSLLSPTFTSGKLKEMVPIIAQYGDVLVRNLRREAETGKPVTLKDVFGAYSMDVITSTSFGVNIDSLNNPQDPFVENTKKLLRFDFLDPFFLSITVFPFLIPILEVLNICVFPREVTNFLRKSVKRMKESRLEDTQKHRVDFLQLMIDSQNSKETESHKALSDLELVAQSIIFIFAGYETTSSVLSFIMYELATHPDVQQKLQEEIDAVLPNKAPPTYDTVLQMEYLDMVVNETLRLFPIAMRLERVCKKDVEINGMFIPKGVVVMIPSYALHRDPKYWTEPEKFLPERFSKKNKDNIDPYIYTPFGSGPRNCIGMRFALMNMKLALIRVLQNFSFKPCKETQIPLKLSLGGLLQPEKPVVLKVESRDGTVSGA
Experimental: (§2) Treatment of elderly patients who suffer from cancer or degenerative CNS diseases usually requires the use of more than one medication at the same time, which can result in a greater risk of DDIs. […] The results were compared to the selective CYP3A4 inhibitor ketoconazole and selective CYP2D6 inhibitor quinidine.
as §1, with “To predict potential DDIs the CYP3A4 and CYP2D6 P450-Glo™ kits provided by Promega (Madison, WI, USA) were used according to provided protocols.” left out
(§3) The luminescent signal and the absorbances (measured at 490 nm) in DDIs and safety assays were measured by using an EnSpire PerkinElmer microplate reader (Waltham, MA, USA). […]

gpH1R = biological target: T2, gpH1R (Cavia porcellus, UniProt P31389); test: Ex vivo assay for histamine H1R antagonists on guinea pig ileum stimulated by histamine (+atropine); conditions: gpH1R +Atropine pA2 ± sem, isolated guinea pig ileum, vs histamine, 0.05 µM atropine
T2 construct: from tissue; host or cells: isolated distal ileum of male guinea pigs
T2 sequence (P31389 whole entry): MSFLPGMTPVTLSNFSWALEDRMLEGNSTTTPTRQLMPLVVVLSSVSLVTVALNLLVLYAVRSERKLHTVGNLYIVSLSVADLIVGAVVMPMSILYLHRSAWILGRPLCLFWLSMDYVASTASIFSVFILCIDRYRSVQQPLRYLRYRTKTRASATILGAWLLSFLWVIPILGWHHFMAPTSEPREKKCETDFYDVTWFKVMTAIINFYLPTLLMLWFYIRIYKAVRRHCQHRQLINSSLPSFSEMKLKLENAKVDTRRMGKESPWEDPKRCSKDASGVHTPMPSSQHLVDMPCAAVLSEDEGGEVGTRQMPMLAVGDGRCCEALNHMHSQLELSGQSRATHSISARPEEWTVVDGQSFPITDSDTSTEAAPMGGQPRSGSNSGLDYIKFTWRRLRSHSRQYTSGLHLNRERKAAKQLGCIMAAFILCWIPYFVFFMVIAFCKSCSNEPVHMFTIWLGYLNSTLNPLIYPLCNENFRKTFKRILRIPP
Experimental: A second histamine receptor located in the guinea pig ileum is H1R. The antagonistic effect at H1R was measured on the isolated guinea pig ileum stimulated to contractions by histamine. To eliminate the impact of muscarinic receptors located on the tested tissue, 0.05 µM of atropine was added to the Krebs buffer.
Ex vivo assay for histamine H3R and H1R antagonists were measured on the isolated guinea pig ileum stimulated to contractions by histamine. The pA2-values were calculated according to Arunlakshana and Schild. The radioligand-displacement binding assay was performed in membrane fractions of HEK-293 cells stably expressing hH3R. Cell cultivation and membrane preparation was performed according to Kottke et al.. The Ki values were calculated from the IC50 values using the Cheng–Prusoff equation [37]. The statistical calculations were performed on –log(Ki). […] The inhibitory activities of novel ADS compounds were assessed in spectrophotometric Ellman’s assay using AChE from electric eel (eeAChE) and BuChE from horse serum (eqBuChE).
3.2 Ex vivo assay for histamine H1R receptor antagonists on guinea pig ileum.
Male guinea pigs, weighing 300-400 g were euthanized by a blow to the neck. A 20-30 cm length of the distal ileum, apart from the terminal 5 cm was rapidly removed and placed in phosphate buffer at room temperature (pH […]
Aldrich, St. Louis, MO, USA) (1·10-6 mol/L). The intraluminal content was rinsed and the isolated intestine was cut into 1.5-2 cm segments. The preparations were mounted isotonically in a 20 mL organ bath filled with Krebs […]
a constant load of 0.5 g (Hugo Sachs Hebel-Messvorsatz (Tl-2)/HF-modem; Hugo Sachs Elektronik, Hugstetten, Germany) connected to a pen recorder (Kipp & Zonen BD41, Delft, Holland). During an equilibration period of 40 min, the Krebs buffer was changed every 10 min. The first cumulative concentration-response curve was determined to histamine (Sigma-Aldrich, St. Louis, MO, USA) (10 nM - 10 mM) at increasing concentration spaced by three or 3.3-fold. The second to the fourth (or fifth) curve was measured in the presence of an increasing concentration of antagonist (incubation time 10 min). The pA2-values were calculated according to Arunlakshana and Schild. [Br J Pharmacol Chemother. […] Statistical analysis was carried out with the Students’ t-test. In all tests, a p<0.05 was considered statistically significant. The pA2 values were compared with the affinity

CYP2D6 = biological target: T3, CYP2D6 (Homo sapiens, UniProt P10635); test: Influence on CYP2D6 activity (P450-Glo); type: in vitro ADME
T3 construct: purchased Promega (Madison, WI, USA)
T3 sequence (P10635 whole entry): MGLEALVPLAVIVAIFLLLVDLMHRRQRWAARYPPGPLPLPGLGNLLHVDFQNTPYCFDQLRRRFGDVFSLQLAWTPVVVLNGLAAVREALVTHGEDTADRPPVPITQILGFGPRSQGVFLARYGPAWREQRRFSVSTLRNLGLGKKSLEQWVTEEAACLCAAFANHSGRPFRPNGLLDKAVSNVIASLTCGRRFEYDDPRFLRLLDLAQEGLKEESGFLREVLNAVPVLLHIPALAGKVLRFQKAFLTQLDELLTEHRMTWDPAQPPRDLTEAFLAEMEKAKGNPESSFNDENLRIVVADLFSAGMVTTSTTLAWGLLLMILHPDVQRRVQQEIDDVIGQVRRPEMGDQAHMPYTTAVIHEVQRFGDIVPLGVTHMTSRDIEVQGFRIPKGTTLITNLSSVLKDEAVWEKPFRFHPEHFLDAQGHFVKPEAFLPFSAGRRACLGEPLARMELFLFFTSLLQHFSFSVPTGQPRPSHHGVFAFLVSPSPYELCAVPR
Experimental: as §2
as §1, with “To predict potential DDIs the CYP3A4 and CYP2D6 P450-Glo™ kits provided by Promega (Madison, WI, USA) were used according to provided protocols.” left out
as §3

| SMILES | early apoptotic cells (Q1lr) [1] [%] | late apoptotic cells (Q1ur) [1] [%] | decrease of hepatoma HepG2 cell viability (hepatoma HepG2 cell line; 100 µM, 72 h) | HepG2 cell viability at concentrations up to 50 µM (hepatoma HepG2 cell line; 72 h) | hepatotoxic activity (in words) (hepatoma HepG2 cell line; HepG2, 72 h, 0.01-100 µM) | Substrate Remaining ([2]; 120 min incubation with HLMs, Tris buffer pH 7.4, 37 °C) [%] | Metabolic Pathway ([2]; HLMs, metabolites M1-M3 by LC/MS) | influence on CYP3A4 activity (CYP3A4) | Kb (gpH1R) [nM] | CYP2D6 inhibition (in words) (CYP2D6) | decrease of CYP2D6 activity (CYP2D6; lowest tested dose of 0.1 µM) |
| --- | --- | --- | --- | --- | --- | --- | --- | --- | --- | --- | --- |
| N=C(N)N(CCCCN1CCN(CCCCCCCOc2ccccc2)CC1)Cc1ccccc1 [ADS1017] | 2 | 38 | – | – | – | – | – | – | – | – | – |
| Cl.Cl.N=C(NCCCCc1ccc(Cl)cc1)NCCCCN1CCCCC1 [ADS10310] | – | – | ~ 40% | no decrease | weak hepatotoxic activity | 73.6 | decomposition and triple hydroxylation | did not show any influence on CYP3A4 activity | 339 | strongly inhibited CYP2D6; also recorded: strong inhibitor of CYP2D6 activity | more than 50% |
